Test results from article PMC8080589, “Modulation of αVβ6 integrin in osteoarthritis-related synovitis and the interaction with VTN(381–397 a.a.) competing for TGF-β1 activation” (Experimental & Molecular Medicine, 2021).
Ends that are not written are not given here.

Legend:
integrin αVβ6 = biological target: T1, integrin αVβ6 (Homo sapiens, UniProt P06756+P18564); experiment: Competition study, 125ISIB-echistatin vs ligands on coated αVβ6; type: binding; settings: competition with 125ISIB-echistatin on α5β1, αVβ1, αVβ3, αVβ5, αVβ6
T1 construct: purchased R&D System; Minneapolis, MN, USA
Procedure: A competition study was performed to investigate the interaction of VTN(381–397 a.a.) with five different integrins. Radiolabeled echistatin, a disintegrin known to bind integrin receptors, was used as a tracer for the binding assays. Lyophilized echistatin was provided by Bachem (Bubendorf, Switzerland) and radiolabeled by conjugation with a radioiodinated benzoate (^125ISIB) to the epsilon amino group of lysine side chains. For the five integrins, α5β1, αVβ1, αVβ3, αVβ5, and αVβ6 (R&D System; Minneapolis, MN, USA), a solution at 1.8 µg/mL was prepared with integrin-binding buffer (IBB; 20 mM Tris pH 7.4, 150 mM NaCl, 2 mM CaCl2, 1 mM MgCl2, 1 mM MnCl2). Nunc Maxisorp Module plates were coated overnight at 4 °C with integrin complex at 1.8 µg/mL. After the wells were washed with sample buffer (IBB, 0.5% BSA), blocking solution (IBB, 2% BSA) was added, and the microplate was incubated for 2 h at room temperature. The wells were then washed three times with IBB/0.5% BSA. Then, ^125ISIB-echistatin was diluted in sample buffer to fixed concentrations of 4, 4, 8, 8, and 20 nM for α5β1, αVβ1, αVβ3, αVβ5, and αVβ6 competition studies, respectively. The ^125ISIB-echistatin was mixed with sample buffer at a ratio of 1:1 (total binding = control well) or with increasing concentrations of ligands (Supplementary information SI1) [complete VTN, VTN(381–397 a.a.), VTN(365–381 a.a.)] at a ratio 1:1 and added to wells in duplicate. We used 1,4,7-triazacyclononane-1,4,7-triacetic acid (NOTA) as a negative control. […] After rinsing, bound radioactivity was quantified using a gamma counter. The percentage of relative binding of radiolabeled echistatin was calculated as follows: radioactivity in the test well*100/radioactivity in the reference well. […] For comparison of the potency of ligands in inhibiting bound ^125ISIB-echistatin for different integrin complexes, the half-maximal inhibitory concentration (IC50) was calculated. The IC50 value was determined by constructing a dose–response curve and examining the effect of different concentrations of ligands on ^125ISIB-echistatin binding. […]
To determine if VTN(381–397 a.a.) could interact with integrins, we investigated its ability to compete with radiolabeled echistatin for binding to five different integrin complexes: α5β1, αVβ1, αVβ3, αVβ5 and αVβ6. […] First, the binding affinity of echistatin to the five integrins was measured by determining the equilibrium dissociation constant (KD). […] The fixed concentration of radiolabeled echistatin was determined according to its KD value. For each ligand concentration, the relative binding of ^125ISIB-echistatin to coated integrins was then measured, and values were plotted versus the logarithm of ligand concentration.

αVβ3 = settings: ref [32]; cited from earlier work
Source text: (§1) In this study, we started to move towards a functional investigation of the role of VTN(381–397 a.a.) in OA. VTN is known to interact with integrin receptors by its RGD motif, which is positioned far upstream from VTN(381–397 a.a.) on the N-terminal end of VTN. However, Maile and colleagues also previously described a second integrin-binding site located within the HBD between amino acids 365 and 381[32],[33]. […] Considering that the fragment VTN(381–397 ...

β3 phosphorylation = settings: through binding to αVβ3; ref [32]; cited from earlier work
Source text: as §1

T1 sequence (P06756 31-992 limits assumed): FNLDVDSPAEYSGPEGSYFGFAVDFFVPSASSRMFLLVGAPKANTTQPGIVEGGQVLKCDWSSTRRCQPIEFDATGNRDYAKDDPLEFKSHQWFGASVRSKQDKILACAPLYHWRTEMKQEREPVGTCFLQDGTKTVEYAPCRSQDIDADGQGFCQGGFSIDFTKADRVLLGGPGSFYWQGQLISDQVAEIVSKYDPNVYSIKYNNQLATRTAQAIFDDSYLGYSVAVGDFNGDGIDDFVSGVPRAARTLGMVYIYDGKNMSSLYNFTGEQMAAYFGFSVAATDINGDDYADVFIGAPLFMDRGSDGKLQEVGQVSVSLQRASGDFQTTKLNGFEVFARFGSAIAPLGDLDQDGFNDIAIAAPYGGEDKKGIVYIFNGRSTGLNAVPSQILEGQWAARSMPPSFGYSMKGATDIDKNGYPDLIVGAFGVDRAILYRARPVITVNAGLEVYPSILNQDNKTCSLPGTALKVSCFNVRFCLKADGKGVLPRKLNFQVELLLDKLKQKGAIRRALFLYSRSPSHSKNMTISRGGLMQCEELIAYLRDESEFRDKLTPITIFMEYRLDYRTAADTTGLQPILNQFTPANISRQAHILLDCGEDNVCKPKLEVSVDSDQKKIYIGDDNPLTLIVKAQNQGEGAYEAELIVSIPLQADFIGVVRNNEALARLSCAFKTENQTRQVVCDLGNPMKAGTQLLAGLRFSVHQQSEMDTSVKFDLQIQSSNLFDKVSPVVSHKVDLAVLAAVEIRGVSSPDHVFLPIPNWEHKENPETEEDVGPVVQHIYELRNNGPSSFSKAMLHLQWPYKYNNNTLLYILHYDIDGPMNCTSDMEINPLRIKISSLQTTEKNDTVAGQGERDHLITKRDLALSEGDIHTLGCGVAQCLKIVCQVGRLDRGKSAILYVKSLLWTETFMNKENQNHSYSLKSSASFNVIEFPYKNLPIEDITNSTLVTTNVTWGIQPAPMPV
T1 sequence (P18564 22-707 limits assumed): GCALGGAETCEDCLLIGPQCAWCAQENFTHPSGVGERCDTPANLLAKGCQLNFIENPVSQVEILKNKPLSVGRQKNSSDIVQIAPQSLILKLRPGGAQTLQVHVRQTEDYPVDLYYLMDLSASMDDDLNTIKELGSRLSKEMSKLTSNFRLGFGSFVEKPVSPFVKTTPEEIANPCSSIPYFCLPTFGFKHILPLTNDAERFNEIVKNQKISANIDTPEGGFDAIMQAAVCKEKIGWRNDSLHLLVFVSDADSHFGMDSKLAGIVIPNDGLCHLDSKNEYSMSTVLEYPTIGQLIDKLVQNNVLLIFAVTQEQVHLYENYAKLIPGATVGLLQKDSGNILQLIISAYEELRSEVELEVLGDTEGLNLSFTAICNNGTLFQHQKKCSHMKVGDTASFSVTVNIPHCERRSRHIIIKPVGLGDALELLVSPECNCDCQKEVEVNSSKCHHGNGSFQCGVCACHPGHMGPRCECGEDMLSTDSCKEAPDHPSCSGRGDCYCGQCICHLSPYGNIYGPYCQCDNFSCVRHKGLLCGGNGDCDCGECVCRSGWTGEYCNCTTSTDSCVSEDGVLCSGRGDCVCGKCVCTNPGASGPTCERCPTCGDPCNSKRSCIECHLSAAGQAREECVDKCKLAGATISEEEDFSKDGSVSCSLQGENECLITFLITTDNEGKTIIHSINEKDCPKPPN

For LAKKQRFRHRNRKGYRS [VTN(365–381 a.a.)], the “integrin binding specificity” value (integrin αVβ6) is listed as “only showed a high affinity for integrin αVβ6”, the “interaction with αVβ3” value (αVβ3) is listed as “could interact with αVβ3” and the “effect on β3 phosphorylation” value (β3 phosphorylation) is listed as “its binding was sufficient to enhance β3 phosphorylation”.
